Source: patent publication US20260184721A2, “FUSED RING COMPOUND, CONJUGATE THEREOF AND USE THEREOF” (Keymed Biosciences (Chengdu) Co., Ltd., priority 2022, published 2026)
Where two headings read alike, the source gives them in different places.

Key:
[1] = tested on: SK-BR-3 tumor cells; assay: In vitro proliferation inhibitory activity of compounds of Formula (GH) on SK-BR-3 tumor cells (CCK8); type: cell-based; details: Homo sapiens, SK-BR-3, 72 h, 3 days of culture, read-out: IC50 for inhibiting proliferation of SK-BR-3 cells in vitro
Experimental: The objective of this experiment is to detect the in vitro killing activity of the compound of Formula (GH) of the present disclosure on SK-BR-3 tumor cells (human breast cancer cells, Wuhan Procell, Catalog No. CL-0211). The cells were treated with different concentrations of the compound in vitro. After 3 days of culture, the number of viable cells was detected using CCK8 (Cell Counting Kit-8, Catalog No. TS547) reagents, and the in vitro activity of the test compound was evaluated according to the IC50 value.
Taking the test method of in vitro killing activity on SK-BR-3 cells as an example, the following test was performed. […] After the cells were completely digested, 10 mL of cell culture medium containing 2% FBS was added to wash out the digested cells, centrifugation was performed at 300 g for 5 min, the supernatant was discarded, and then 10 to 20 mL of cell culture medium containing 2% FBS was added to resuspend the cells to prepare a single cell suspension. • (3) Cell plating: The SK-BR-3 single cell suspension was mixed well, the viable cell density was adjusted to 6×10^4 cells/mL with the cell culture medium containing 2% FBS, the cell suspension after density adjustment was mixed well, and added to a 96-well cell culture plate at 100 μL/well. Only 200 μL of PBS was added to the peripheral wells of the 96-well plate. The culture plate was incubated in an incubator for 24 hours (37° C., 5% CO2). • (4) Compound preparation: The compound was dissolved in DMSO (dimethyl sulfoxide, SIGMA) to prepare a 2 mM stock solution.
The starting concentrations of small molecule compounds and Dxd were both 600 nM, and the preparation method was as follows.
Then, 315 μL of different samples to be tested were added to the first column of a 96-well U-bottomed drug distribution plate, and the sample concentration was 1200 nM; 210 μL of the cell culture medium containing 2% FBS was added to each well of the second to tenth columns. 105 μL of the sample was taken from the first column and added to the 210 μL cell culture medium in the second column and mixed well, and 105 μL was taken and added to the third column, and so on to the tenth column. • (5) Sample loading operation: 100 μL of the sample to be tested of different concentrations was added to the culture plate, and two replicate wells were set for each sample. The culture plate was incubated in an incubator for 3 days (37° C., 5% CO2). • (6) Color development operation: The 96-well cell culture plate was taken out, the cell culture supernatant was removed by tapping, 100 μL of the RPMI 1640 basal medium (without FBS) containing 10% CCK8 was added, and then it was incubated in an incubator for about 1.5 hours (37° C., 5% CO2). • (7) Plate reading operation: The 96-well cell culture plate was taken out, placed in an ELISA reader (MD SpectraMax i3X), and A450 was determined by the ELISA reader. • (8) Data analysis: Microsoft Excel and Graphpad Prism 5 were used to process and analyze the data.

[2] = tested on: NCI-N87 tumor cells; assay: In vitro proliferation inhibitory activity of compounds of Formula (GH) on NCI-N87 tumor cells (CCK8); type: cell-based, human; details: Homo sapiens, read-out: IC50 for inhibiting proliferation of NCI-N87 cells in vitro
Experimental: The objective of this experiment is to detect the in vitro killing activity of the compound of Formula (GH) disclosed in the present invention on NCI-N87 tumor cells (human gastric cancer cells, Cell Resource Center, Institute of Basic Medicine, Chinese Academy of Medical Sciences, Catalog No. 3111C0001CCC000481). The cells were treated with different concentrations of the compound in vitro, and after 6 days of culture, the number of viable cells was detected using CCK8 (Cell Counting Kit-8, Catalog No. TS547) reagents, and the in vitro activity of the test compound was evaluated according to the IC50 value.
• (1) Cell culture: NCI-N87 cells were cultured in the RPMI 1640 medium containing 2% FBS (Shanghai BasalMedia Technologies Co., Ltd., Catalog No. L210KJ). • (2) Cell preparation: NCI-N87 cells in the logarithmic growth phase were taken, washed once with PBS (phosphate buffered saline, Shanghai BasalMedia Technologies Co., Ltd., Catalog No. E211004), added with 1 mL of trypsin (0.25% Trypsin-EDTA (1×), Shanghai BasalMedia Technologies Co., Ltd., Catalog No. A121002) to allow digestion for 2 to 3 minutes. After the cells were completely digested, 10 mL of the cell culture medium was added to wash off and obtain the digested cells, centrifugation was performed at 300 times gravitational acceleration (g) for 5 min, the supernatant was discarded, then 10 mL of PBS was added to wash the cells once, centrifugation was performed at 300 times gravitational acceleration (g) for 5 minutes, the supernatant was discarded, and 10 mL of the cell culture medium containing 2% FBS was added to resuspend the cells to prepare a single cell suspension. • (3) Cell plating: The NCI-N87 single cell suspension was mixed, the density of live cells was adjusted to 3×10^4 cells/mL with 2% FBS cell culture medium, the cell suspension after density adjustment was mixed well, and added to a 96-well cell culture plate at 100 μL/well. Only 200 μL of PBS was added to each of the peripheral wells of the 96-well plate. The plate was incubated in an incubator for 24 hours (37° C., 5% CO2). • (4) Preparation of sample to be tested:
The sample to be tested was diluted to 3200 nM with cell culture medium containing 2% FBS, then 300 μL of the sample was added to the first well of a 96-well U-bottomed plate with a sample concentration of 3200 nM; and 210 μL of cell culture medium containing 2% FBS was added to each well of the second to tenth columns. 70 μL of the sample was taken from the first column and added to the 210 μL cell culture medium in the second column and mixed well, 70 μL was taken and added to the third column, and so on to the ninth column. • (5) Sample loading operation: 100 μL of the sample to be tested with different concentrations was added to the culture plate, two replicate wells were set for each sample. The culture plate was incubated in an incubator for 6 days (37° C., 5% CO2). • (6) Color development operation: The 96-well cell culture plate was taken out, the supernatant of the culture medium was removed by tapping, 100 μL of 10% CCK8 (prepared with RPMI 1640 basal culture medium, without FBS) solution was added to each well, and incubation was performed in an incubator for 2 hours. • (7) Plate reading operation: The 96-well cell culture plate was taken out, placed in an ELISA reader (SpectraMax i3X), and A450 was determined by the ELISA reader. • (8) Data analysis: Microsoft Excel and Graphpad Prism 5 were used to process and analyze the data.

[3] = NCI-N87, 6 days of culture, CCK8

Structure (SMILES) | IC50 [1] | IC50 [2, 3] | IC50 ([2]; NCI-N87, […])
Cc1c(F)cc2nc3c(c4c2c1CC[C@@H]4NC(=O)CO)Cn1c-3cc2c(c1=O)COC(=O)[C@]2(O)CC1CC1 [Compound 1-B, N-((1S,9S)-9-(cyclopropylmethyl)-5-fluoro-9-hydroxy-4-methyl-10,13-dioxo-2,3,9,10,13,15-hexahydro-1H,12H-benzo[de]pyrano[3′,4′:6,7]indolizino[1,2-b]quinolin-1-yl)-2-hydroxyacetamide] | 1.94 nM | 5.36 nM | –
Cc1c(F)cc2nc3c(c4c2c1CC[C@@H]4NC(=O)[C@H](C)O)Cn1c-3cc2c(c1=O)COC(=O)[C@]2(O)CC1CC1 [Compound 2-A, (S)-N-((1S,9S)-9-(Cyclopropylmethyl)-5-fluoro-9-hydroxy-4-methyl-10,13-dioxo-2,3,9,10,13,15-hexahydro-1H,12H-benzo[de]pyrano[3′,4′:6,7]indolizino[1,2-b]quinolin-1-yl)-2-hydroxypropanamide] | 5.88 nM | 1.92 nM | –
Cc1c(F)cc2nc3c(c4c2c1CC[C@H]4NC(=O)[C@H](O)C1CC1)Cn1c-3cc2c(c1=O)COC(=O)[C@]2(O)CC1CC1 [Compound 5-B, (R)-2-Cyclopropyl-N-((1R,9S)-9-(cyclopropylmethyl)-5-fluoro-9-hydroxy-4-methyl-10,13-dioxo-2,3,9,10,13,15-hexahydro-1H,12H-benzo[de]pyrano[3′,4′:6,7]indolizino[1,2-b]quinolin-1-yl)-2-hydroxyacetamide] | 4.92 nM | – | 2.96 nM
CC[C@@]1(O)C(=O)OCc2c1cc1n(c2=O)Cc2c-1nc1cc(F)c3c(c1c2CNC(=O)[C@H](C)O)CCC3 [Compound 25, (S)-N-(((S)-8-Ethyl-4-fluoro-8-hydroxy-9,12-dioxo-2,3,8,9,12,14-hexahydro-1H,11H-cyclopenta[f]pyrano[3′,4′:6,7]indolizino[1,2-b]quinolin-15-yl)methyl)-2-hydroxypropanamide] | 5.41 nM | – | 5.46 nM
